Series [1] in a line: solubility / achievable concentration of sodium 4-phenylbutyrate in water. The class given is physicochemical. As for the experimental part:
In another embodiment, this invention provides a process of preparing a supersaturated solution of sodium 4-phenylbutyrate in water by adding sufficient water to a known quantity of sodium 4-phenylbutyrate at an elevated temperature of about 30° to about 80° C. to produce a concentration of about 600 mg/mL.
As described in more detail below, this invention describes a process of preparing a highly concentrated solution of sodium 4-phenylbutyrate, having a concentration 500 mg/mL in water by dissolving 5 g of sodium 4-phenylbutyrate in about 3.5 mL water to yield a solution volume of about 10 mL. The temperature can be room temperature (25° C.) or an elevated temperature, preferably in the range of up to about 80° C. We found it is more difficult to make this solution at room temperature, but the solution can be made at a higher temperature and then cooled to room temperature without precipitating resulting. […] Therefore, due to likely micelle formation of sodium 4-phenylbutyrate (which we term the self-associated polymeric form), the high concentration of about 500 mg/mL can be achieved in solution. […] This novel invention thus provides a dosage form better able to help the patients presently administered with a high volume dosage of sodium 4-phenylbutyrate. […]

Series [2] is described as follows: cold storage of the highly concentrated aqueous solution (freezing / precipitation). The series is classed as physicochemical. As for the experimental part: As described in more detail below, this invention describes a process of preparing a highly concentrated solution of sodium 4-phenylbutyrate, having a concentration 500 mg/mL in water by dissolving 5 g of sodium 4-phenylbutyrate in about 3.5 mL water to yield a solution volume of about 10 mL. The temperature can be room temperature (25° C.) or an elevated temperature, preferably in the range of up to about 80° C. We found it is more difficult to make this solution at room temperature, but the solution can be made at a higher temperature and then cooled to room temperature without precipitating resulting. […] Therefore, due to likely micelle formation of sodium 4-phenylbutyrate (which we term the self-associated polymeric form), the high concentration of about 500 mg/mL can be achieved in solution. […] This novel invention thus provides a dosage form better able to help the patients presently administered with a high volume dosage of sodium 4-phenylbutyrate. This invention is not intended to be limited by this discussion of micellar phases, or the presence or absence of other high concentration phases (such as sponge or L3, worm-like micelles, sheets and other laminar phases) that may be formed depending on the particular processing conditions and/or materials used. In the follow description the term “solution” is used without regard to whether a micellar phase is present.
About 160 g of sodium 4-phenylbutyrate was transferred to a 250 mL volumetric flask to which was then added about 90 mL of water and agitated with heating at a temperature 70° C. to dissolve. The mixture was cooled to 25° C. and 0.5 g of sodium benzoate was added and mixed well. This solution was compounded to 250 mL with water.

On to `O=C([O-])CCCc1ccccc1.[Na+]` [sodium 4-phenylbutyrate], for which the “high concentration achieved in solution” value in series [1] (in water, made at room temperature (25° C.) or up to about 80° C., then cooled without precipitation) was “about 500 mg/mL”. In addition, the “maximum drug concentration achieved in the formulation” value in series [1] (supersaturated solution in aqueous medium) is “about 700 mg/mL”. In addition, the “freezing of the solution” value in series [2] (600 mg/mL solution at 0° C.) is on record as “does not freeze”. In addition, the “freezing or precipitation upon storage” value in series [2] (about 500 mg/mL solution, 0° C. for two days) is reported as “did not freeze or precipitate out”. Moreover, the “precipitation on further cooling” value in series [2] (about 500 mg/mL solution, cooled to −4° C.) is on record as “precipitation observed”.

Values taken from patent publication US20070004805A1, “Process for preparation of liquid dosage form containing sodium 4-phenylbutyrate” (Navinta LLC, priority 2005, published 2007).
